{"source": "patent US10799501B2", "about": "“Combination of an inhibitor of PARP with an inhibitor of GSK-3 or DOT1L” (King's College London, priority 2015, dated 2020)", "test_system": "primary human MLL leukemic cells from patient AML1", "test": "NSG mice transplanted with primary AML1 cells (luciferase), Olaparib and lithium carbonate diet", "type": "in vivo, mouse", "settings": "NSG mice, leukemia driven by primary AML1 cells; Olaparib, Li diet or combination in vivo", "excerpt": "For in vivo experiment with primary AML samples, 10^5 AML1 cells transduced with firefly luciferase expressing plasmid were transplanted via by IF into the right femur of the NSG mice. Three days after transplantation, mice were supplemented with 0.4% LiCO3 containing diet and treated with Olaparib as described above for alternative day until day 21. After day 21, mice were maintained on 5 days of lithium carbonate diet and alternated with 2 days regular diet and water for 2 additional weeks. From day 21, the tumor burdens of the animals were detected using IVIS Lumina II® (Caliper) with software Living Image® Verion 4.3.1. Briefly, […] of 30 mg/mL luciferin were injected into the animals by IP. 10 minutes after injection, the animals were maintained in general anaesthesia by isoflurane and put into the IVIS chamber for photography and detection of photon emission (large binning, F=1.2, exposure time: 3 mins). The tumor burden were measured and quantified by the same software as instructed. The animals were culled when the tumor burden was 10e8 photon per second or higher.", "data": [{"smiles": "O=C(c1cc(Cc2n[nH]c(=O)c3ccccc23)ccc1F)N1CCN(C(=O)C2CC2)CC1", "note": "[Olaparib, 4-[(3-[(4-cyclopropylcarbonyl)piperazin-4-yl]carbonyl)-4-fluorophenyl]methyl(2H)-phthalazin-1-one]", "values": [{"measurement": "BM Engraftment (%)", "value": "53.23 ± 23.21", "unit": "%"}, {"measurement": "Disease Latency (days; median)", "value": 60, "unit": "days"}, {"measurement": "Hematopoietic Liver Engraftment (%)", "value": "23.20 ± 20.61", "unit": "%"}, {"measurement": "Hematopoietic Spleen Engraftment (%)", "value": "2.733 ± 4.166", "unit": "%"}, {"measurement": "Liver", "value": "1.30 ± 0.134", "unit": "g"}, {"measurement": "Spleen", "value": "0.136 ± 0.029", "unit": "g"}]}]}
